US20070212786A1, “Monitoring heparin by microelectronic devices” (priority 2005, published 2007)

Target: T1, AT-III (Homo sapiens, UniProt P01008)
T1 construct: purchased Bayer Corp
Assay: AT-III field-effect sensor binding (differential surface potential dose-response)
Details: covalently immobilized biotinylated AT-III on the active sensor, BSA-passivated control sensor, dose-response curve FIG. 4B
Description: In one embodiment, AT-III is used as a covalently immobilized surface receptor. In this embodiment, the present invention can monitor active heparin. FIG. 4A illustrates the surface immobilization chemistry according to this embodiment. The surface immobilization chemistry involves aldehyde-terminated silanization of the SiO2 surface, followed by the reductive amination of the aldehyde groups to the surface-exposed amino groups of avidin, blocking the unreacted sites by ethanolamine, and attachment of covalently-immobilized avidin to biotinylated AT-III. […] Upon deblocking, the resulting bAT-III remains fully active because the heparin-binding site remains intact and unhindered because the introduced biotin groups are positioned away from it. This immobilization strategy ensures full activity and the desired surface orientation of AT-III for maximizing the sensor performance. […] The selectivity of the AT-III sensor to heparin sequence was measured by examining the binding affinity to chondroitin sulfate, a negatively charged polysaccharide structurally related to heparin. […]
The surface potential of the filed sensitive region was determined by applying an AC signal (50 mV sine wave at 4 kHz) to the reference electrode and measuring the resulting current through the EIS structure with a current preamp (Keithley Model 428) and lock-in amplifier. […]

T1 sequence (P01008 33-464): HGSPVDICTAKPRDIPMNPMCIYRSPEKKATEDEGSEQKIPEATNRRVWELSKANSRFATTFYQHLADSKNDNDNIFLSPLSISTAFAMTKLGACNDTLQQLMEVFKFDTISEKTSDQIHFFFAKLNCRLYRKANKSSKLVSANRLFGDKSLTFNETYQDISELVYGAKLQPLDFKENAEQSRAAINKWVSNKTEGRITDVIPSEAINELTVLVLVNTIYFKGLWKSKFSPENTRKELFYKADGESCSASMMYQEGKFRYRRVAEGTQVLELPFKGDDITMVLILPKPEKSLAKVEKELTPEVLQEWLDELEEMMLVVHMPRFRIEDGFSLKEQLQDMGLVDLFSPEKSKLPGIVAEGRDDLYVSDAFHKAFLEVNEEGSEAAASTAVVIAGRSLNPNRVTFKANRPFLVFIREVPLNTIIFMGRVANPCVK

- response of the AT-III sensor (binding affinity, selectivity versus heparin): neglible
Substance: chondroitin sulfate
